Test results: US9914709B2, “Compositions and methods of treating HIV-1 infections using same” (YALE UNIVERSITY, priority 2013, dated 2018)
≈ marks a conversion by molar mass, not a printed value. Where two headings read alike, the source gives them in different places. Marks after values point to notes of the source that are not given here.

Legend:
[1] = tested on: IIIB strain of HIV-1 (wild-type); assay: Anti-HIV-1 activity, MT-2 cells infected with wild-type HIV-1 (IIIB), MTT method; type: cell-based; conditions: for EC50: Human immunodeficiency virus 1, IIIB, MT2, read-out: EC50 WT
HIV-1 Y181C variant = assay: microbe, parasite or virus in culture; type: cell-based
physchem = conditions: for increase in S: 48 h; for solubility at 48 h: 25 °C, thermodynamic from solid
Procedure: The compounds were dissolved in Britton-Robinson buffer and stirred in vials for 48 hours at 25° C. The pH of the buffer solutions was measured by a Corning General Purpose pH Combination probe (4136L21).
For measurement of aqueous solubility, the pH of the buffer solutions was measured by Corning Combination pH Electrodes (4136L21) pH meter with Ag/AgCl glass electrode. […] An Ika® RCT basic magnetic stirrer was used to mix the two phases.
The equilibrium solubility of the non-ionized form of the samples was determined by the shake flask method. For each reported solubility result, two or three independent shake-flask experiments were carried out in parallel. For each experiment the 5 mg of the solid was added to 5 mL of the buffer in a vial. […] The standards and samples were measured by UV spectrophotometry at the maximum wavelength of the individual compounds.

[2] = tested on: HIV-1 K103N/Y181C variant; assay: microbe, parasite or virus in culture; type: cell-based
in vitro = conditions: human
[3] = cited from earlier work; for aqueous solubility: literature values
[4] = Human immunodeficiency virus 1, MT2, read-out: EC50, Y181C variant
[5] = Human immunodeficiency virus 1, MT2, read-out: EC50 Y181C
[6] = Human immunodeficiency virus 1, MT2, read-out: EC50 K103N/Y181C

Row | Structure (SMILES) | EC50 (HIV-1 Y181C variant; [5]) | EC50 [2, 6] | EC50 [1] | CC50 (in vitro) | also measured
1 | COc1nc(Nc2ccc(C#N)c(OCC=C(C)C)c2)nc(OCCN2CCOCC2)n1 [Compound 2j, 4-((4-methoxy-6-(2-morpholinoethoxy)-1,3,5-triazin-2-yl)amino)-2-((3-methylbut-2-en-1-yl)oxy)benzonitrile] | – | – | – | – | reduction in wild-type potency ([1]; relative to parent lacking the morpholinoalkoxy group (2a; 10a)): 9 fold; activity in the wild-type cell assay less ([1]; than rilpivirine or dapivirine): 100 fold; activity towards the Y181C-containing viral variant (HIV-1 Y181C variant): does not show activity
2 | Cc1cc(C)c(Nc2cc(OCCN3CCOCC3)nc(Nc3ccc(C#N)cc3)n2)c(C)c1 [Compound 5a, 4-((4-(mesitylamino)-6-(2-morpholinoethoxy)pyrimidin-2-yl)amino)benzonitrile] | 700 nM | 60 nM | – | – | increase in S (physchem): 83 fold; Aqueous Solubility (S) (physchem; Table 5, pH 6.5): 12.5 µg/mL; EC50 (HIV-1 Y181C variant; [4]): 700 nM
3 | Cc1cc(C)c(Nc2cc(OCCCN3CCOCC3)nc(Nc3ccc(C#N)cc3)n2)c(C)c1 [Compound 5b, 4-((4-(mesitylamino)-6-(3-morpholinopropoxy)pyrimidin-2-yl)amino)benzonitrile] | 480 nM | 38 nM | – | – | increase in S (physchem): 182 fold; Aqueous Solubility (S) (physchem; Table 5, pH 6.5): 27.3 µg/mL; EC50 (HIV-1 Y181C variant; [4]): 480 nM
4 | Cc1cc(/C=C/C#N)cc(C)c1Nc1cc(OCCCN2CCOCC2)nc(Nc2ccc(C#N)cc2)n1 [Compound 5c, (E)-4-((4-((4-(2-cyanovinyl)-2,6-dimethylphenyl)amino)-6-(3-morpholinopropoxy)pyrimidin-2-yl)amino)benzonitrile] | 15 nM | 3 nM | 3.7 nM | 6400 nM | solubility at 48 h (physchem; pH 6.5, aqueous buffer): 2 µg/mL
5 | N#C/C=C/c1cc(F)c(Nc2cc(OCCCN3CCOCC3)nc(Nc3ccc(C#N)cc3)n2)c(F)c1 [Compound 5d, (E)-4-((4-((4-(2-cyanovinyl)-2,6-difluorophenyl)amino)-6-(3-morpholinopropoxy)pyrimidin-2-yl)amino)benzonitrile] | 150 nM | 7.1 nM | 4.1 nM | 18000 nM | –
6 | Cc1cc(C)c(Nc2nc(Nc3ccc(C#N)cc3)nc(OCCN3CCOCC3)n2)c(C)c1 [Compound 6a, 4-((4-(mesitylamino)-6-(2-morpholinoethoxy)-1,3,5-triazin-2-yl)amino)benzonitrile] | 700 nM | 110 nM | – | – | Aqueous Solubility (S) (physchem; Table 5, pH 6.5): 4.42 µg/mL
7 | Cc1cc(C)c(Nc2nc(Nc3ccc(C#N)cc3)nc(OCCCN3CCOCC3)n2)c(C)c1 [Compound 6b, 4-((4-(mesitylamino)-6-(3-morpholinopropoxy)-1,3,5-triazin-2-yl)amino)benzonitrile] | 310 nM | 31 nM | – | – | Aqueous Solubility (S) (physchem; Table 5, pH 6.5): 15.3 µg/mL; EC50 (HIV-1 Y181C variant; [4]): 310 nM; EC50 ([2]; Human immunodeficiency virus 1, MT2, read-out: EC50, K103N/Y181C variant): 31 nM
8 | Cc1cc(C#N)cc(C)c1Nc1nc(Nc2ccc(C#N)cc2)nc(OCCCN2CCOCC2)n1 [Compound 6c, 4-((4-((4-cyanophenyl)amino)-6-(3-morpholinopropoxy)-1,3,5-triazin-2-yl)amino)-3,5-dimethylbenzonitrile] | 1000 nM | 42 nM | – | – | Aqueous Solubility (S) (physchem; Table 5, pH 6.5): 13.3 µg/mL
9 | Cc1cc(/C=C/C#N)cc(C)c1Nc1nc(Nc2ccc(C#N)cc2)nc(OCCCN2CCOCC2)n1 [Compound 6d, (E)-4-((4-((4-(2-cyanovinyl)-2,6-dimethylphenyl)amino)-6-(3-morpholinopropoxy)-1,3,5-triazin-2-yl)amino)benzonitrile] | – | – | – | – | solubility at 48 h (physchem; aqueous buffer): 14.2 µg/mL; increase in S (physchem): 100 fold; Aqueous Solubility (S) (physchem; Table 5, pH 6.5): 14.2 µg/mL
10 | Cc1cc(F)c(Nc2nc(Nc3ccc(C#N)cc3)nc(OCCCN3CCOCC3)n2)c(F)c1 [Compound 6e, 4-((4-((2,6-difluoro-4-methylphenyl)amino)-6-(3-morpholinopropoxy)-1,3,5-triazin-2-yl)amino)benzonitrile] | 350 nM | 70 nM | – | – | Aqueous Solubility (S) (physchem; Table 5, pH 6.5): 22.9 µg/mL
11 | CCc1cc(F)c(Nc2nc(Nc3ccc(C#N)cc3)nc(OCCCN3CCOCC3)n2)c(F)c1 [Compound 6f, 4-((4-((4-ethyl-2,6-difluorophenyl)amino)-6-(3-morpholinopropoxy)-1,3,5-triazin-2-yl)amino)benzonitrile] | 500 nM | 50 nM | – | – | –
12 | CC(C)c1cc(F)c(Nc2nc(Nc3ccc(C#N)cc3)nc(OCCCN3CCOCC3)n2)c(F)c1 [Compound 6g, 4-((4-((2,6-difluoro-4-isopropylphenyl)amino)-6-(3-morpholinopropoxy)-1,3,5-triazin-2-yl)amino)benzonitrile] | 270 nM | 30 nM | – | – | –
13 | N#Cc1ccc(Nc2nc(Nc3c(F)cc(C4CC4)cc3F)nc(OCCCN3CCOCC3)n2)cc1 [Compound 6h, 4-((4-((4-cyclopropyl-2,6-difluorophenyl)amino)-6-(3-morpholinopropoxy)-1,3,5-triazin-2-yl)amino)benzonitrile] | 1100 nM | 150 nM | – | – | –
14 | N#CCCc1cc(F)c(Nc2nc(Nc3ccc(C#N)cc3)nc(OCCCN3CCOCC3)n2)c(F)c1 [Compound 6i, 4-((4-((4-(2-cyanoethyl)-2,6-difluorophenyl)amino)-6-(3-morpholinopropoxy)-1,3,5-triazin-2-yl)amino)benzonitrile] | 230 nM | 20 nM | 5 nM | 27000 nM | solubility at 48 h (physchem; pH 6.5, aqueous buffer): 25.4 µg/mL
15 | N#C/C=C/c1cc(F)c(Nc2nc(Nc3ccc(C#N)cc3)nc(OCCCN3CCOCC3)n2)c(F)c1 [Compound 6j, (E)-4-((4-((4-(2-cyanovinyl)-2,6-difluorophenyl)amino)-6-(3-morpholinopropoxy)-1,3,5-triazin-2-yl)amino)benzonitrile] | 630 nM | 46 nM | 14 nM | 6500 nM | –
16 | Cc1cc(C)c(Nc2nc(Nc3ccc(C#N)cc3)nc(OCCC3CCNCC3)n2)c(C)c1 [Compound 12a, 4-((4-(mesitylamino)-6-(2-(piperidin-4-yl)ethoxy)-1,3,5-triazin-2-yl)amino)benzonitrile] | 1000 nM | 42 nM | – | – | –
17 | Cc1cc(C)c(Nc2nc(Nc3ccc(C#N)cc3)nc(OCCCC3CCNCC3)n2)c(C)c1 [Compound 12b, 4-((4-(mesitylamino)-6-(3-(piperidin-4-yl)propoxy)-1,3,5-triazin-2-yl)amino)benzonitrile] | 1200 nM | 140 nM | – | – | –
18 | Cc1cc(/C=C/C#N)cc(C)c1Nc1nc(NCCCN2CCOCC2)nc(Nc2ccc(C#N)cc2)n1 [JLJ0596, (E)-4-((4-((4-(2-cyanovinyl)-2,6-dimethylphenyl)amino)-6-((3-morpholinopropyl)amino)-1,3,5-triazin-2-yl)amino)benzonitrile] | 510 nM | 68 nM | 7 nM | 1800 nM | –
19 | N#C/C=C/c1cc(F)c(Nc2nc(NCCCN3CCOCC3)nc(Nc3ccc(C#N)cc3)n2)c(F)c1 [JLJ0597, (E)-4-((4-((4-(2-cyanovinyl)-2,6-difluorophenyl)amino)-6-((3-morpholinopropyl)amino)-1,3,5-triazin-2-yl)amino)benzonitrile] | 75 nM | 16 nM | 5.7 nM | 7000 nM | –
20 | Cc1cc(/C=C/C#N)cc(C)c1Nc1cc(NCCCN2CCOCC2)nc(Nc2ccc(C#N)cc2)n1 [JLJ0618, (E)-4-((4-((4-(2-cyanovinyl)-2,6-dimethylphenyl)amino)-6-((3-morpholinopropyl)amino)pyrimidin-2-yl)amino)benzonitrile] | 17 nM | 2 nM | 3 nM | 4500 nM | –
21 | N#C/C=C/c1cc(F)c(Nc2cc(NCCCN3CCOCC3)nc(Nc3ccc(C#N)cc3)n2)c(F)c1 [JLJ0619, (E)-4-((4-((4-(2-cyanovinyl)-2,6-difluorophenyl)amino)-6-((3-morpholinopropyl)amino)pyrimidin-2-yl)amino)benzonitrile] | 470 nM | 34 nM | 4.5 nM | 2200 nM | –
22 | CN1C(C(=O)Nc2ccccn2)=C(O)c2ccccc2S1(=O)=O [Piroxicam, reference compound] | – | – | – | – | Aqueous Solubility (S) (physchem; shake-flask, 25° C.): 7.2 µg/mL; aqueous solubility [3]: 6.4 µg/mL (≈ 19.3 µM)
23 | CC(C)=CCOc1cc(NC(=S)c2ccoc2C)ccc1Cl [UC-781] | – | – | – | – | solubility ([3]; Yang et al. 2008): < 0.03 µg/mL
24 | Cc1cc(C#N)cc(C)c1Oc1nc(Nc2ccc(C#N)cc2)nc(N)c1Br [etravirine] | – | – | – | – | Aqueous Solubility (S) ([3]; Table 5, literature values (Morelock 1994; Weuts 2011)): <<1^b μg/mL; aqueous solubility [3]: lower than 1 μg/mL
